The values that follow come from ChEMBL document CHEMBL1141906, “Novel cyclized Pifithrin-alpha p53 inactivators: synthesis and biological studies” (Bioorg Med Chem Lett, 2005).

Tested on in the first data set: not listed separately
Nature of the data set: Half reaction time was determined. Type of data set: ADME. As to conditions: mouse.
What is called half-life is the time in which the quantity being followed falls by half. `Br.COc1ccc(C(=O)C(C#N)n2c3c(sc2=N)CCCC3)cc1` (stereo unspecified): the half-life was 12 h. With `Br.N=c1sc2c(n1CC(=O)c1ccc([N+](=O)[O-])cc1)CCCC2`, the half-life is 6 h.

Consider `Br.Cc1ccc(C(=O)Cn2c3c(sc2=N)CCCC3)cc1`, for which the half-life is 4 h. `Br.N=c1sc2c(n1CC(=O)c1ccc([N+](=O)[O-])cc1)CC1CCCCC1C2` (stereo unspecified) had a half-life of 5 h.

The species named for a further data set is Mus musculus. Nature of the data set: Effective concentration required to protect mouse embryo cortical neurons against a DNA-damaging agent. It counts as functional.
Conditions: not given
The EC50 is the concentration giving half of the maximal effect. The low end stands for greater potency, the high end for weaker potency. As for `O=[N+]([O-])c1ccc(-c2cn3c4c(sc3n2)CCCC4)cc1`, the EC50 is ~30 nM.

As to `Br.COc1ccc(C(=O)C(C#N)n2c3c(sc2=N)CCCC3)cc1` (stereo unspecified), the EC50 is ~30 nM.
